Laboratory results taken from US4276412A, “3-Trehalosamine compounds” (The Upjohn Company, priority 1979, dated 1981).
Values after ≈ are worked out from the molar mass of the structure shown.

How the values were obtained:
[1] = tested on: S. faecalis UC 694; assay: Minimal Inhibitory Concentration; format: cell-based; conditions: Enterococcus faecalis, UC694
[2] = tested on: S. pyogenes UC 152; assay: Minimal Inhibitory Concentration; format: cell-based; conditions: Streptococcus pyogenes, UC152
[3] = tested on: P. vulgaris UC 93; assay: Minimal Inhibitory Concentration; format: cell-based; conditions: Proteus vulgaris, UC93
[4] = tested on: E. coli UC 45; assay: Minimal Inhibitory Concentration; format: cell-based; conditions: Escherichia coli, UC45
[5] = tested on: S. schottmuelleri UC 126; assay: Minimal Inhibitory Concentration; format: cell-based
[6] = tested on: K. pneumoniae UC 58; assay: Minimal Inhibitory Concentration; format: cell-based; conditions: Klebsiella pneumoniae, UC58
[7] = tested on: S. typhi UC 215; assay: Minimal Inhibitory Concentration; format: cell-based; conditions: Salmonella enterica, read-out: Minimal Inhibitory Concentration
[8] = stability at various pH; format: physicochemical; conditions: any pH from about 1 to about 11
[9] = Solubilities; format: physicochemical
[10] = tested on: Ps. aeruginosa UC 95; assay: Minimal Inhibitory Concentration; format: cell-based; conditions: Pseudomonas aeruginosa, UC95
[11] = tested on: S. marcescens UC 131; assay: Minimal Inhibitory Concentration; format: cell-based; conditions: Serratia marcescens, UC131
[12] = tested on: various Gram-positive and Gram-negative bacteria; assay: antibacterial activity (in words); format: cell-based; conditions: disc assay
Procedure: (§1) The testing was done on a standard microbiological disc assay system using 0.1 ml per 12.7 mm disc.

[13] = tested on: Staphylococcus aureus UC 3665; assay: standard microbiological disc assay, zone size; format: cell-based; conditions: 0.1 ml per 12.7 mm disc
Procedure: as §1

[14] = tested on: Bacillus subtilis UC 564; assay: standard microbiological disc assay, zone size; format: cell-based; conditions: 0.1 ml per 12.7 mm disc
Procedure: as §1

[15] = tested on: Sarcina lutea UC 130; assay: standard microbiological disc assay, zone size; format: cell-based; conditions: 0.1 ml per 12.7 mm disc
Procedure: as §1

[16] = tested on: Bacillus subtilis UC 6033; assay: standard microbiological disc assay, zone size; format: cell-based; conditions: 0.1 ml per 12.7 mm disc
Procedure: as §1

[17] = tested on: Escherichia coli UC 51; assay: standard microbiological disc assay, zone size; format: cell-based; conditions: 0.1 ml per 12.7 mm disc
Procedure: as §1

[18] = tested on: Staphylococcus aureus UC 80; assay: standard microbiological disc assay, zone size; format: cell-based; conditions: 0.1 ml per 12.7 mm disc
Procedure: as §1

[19] = tested on: Klebsiella pneumoniae UC 57; assay: standard microbiological disc assay, zone size; format: cell-based; conditions: 0.1 ml per 12.7 mm disc
Procedure: as §1

[20] = tested on: Pseudomonas aeruginosa UC 95; assay: standard microbiological disc assay, zone size; format: cell-based; conditions: 0.1 ml per 12.7 mm disc
Procedure: as §1

[21] = tested on: Proteus vulgaris UC 93; assay: standard microbiological disc assay, zone size; format: cell-based; conditions: 0.1 ml per 12.7 mm disc
Procedure: as §1

[22] = tested on: D. pneumoniae UC 41; assay: Minimal Inhibitory Concentration; format: cell-based; conditions: Streptococcus pneumoniae, UC41
[23] = tested on: S. aureus UC 76; assay: Minimal Inhibitory Concentration; format: cell-based; conditions: Staphylococcus aureus, UC76
[24] = tested on: S. flexneri UC 143; assay: Minimal Inhibitory Concentration; format: cell-based; conditions: Shigella flexneri, UC143
[25] = tested on: B. subtilis; assay: antibacterial activity (in words); format: cell-based
[26] = tested on: B. subtilis (UC 564); assay: biounit assay against B. subtilis (paper disc, zone of growth inhibition); format: cell-based; conditions: IR-45 (OH--) column fractions after lyophilization; 12.7 mm disc, 0.08 ml, 32° C., ca 18 hours
Procedure: The active fractions during the recovery and purification process are determined by assay against the microorganism Bacillus subtilis. The assay procedure is as follows:
5.0 mls culture are centrifuged (4000×g, 10'). Serial dilutions of the supernatant solution are performed in 0.1 M phosphate buffer, pH 7.7. […] The trays are incubated at 32° C. for ca 18 hours and the zone of growth inhibition recorded.
The designation BU, used herein, means biounit. A biounit is defined as the concentration of the antibiotic which gives a 20 mm zone of inhibition.

[27] = tested on: Staphylococcus aureus; assay: antibacterial activity (in words); format: cell-based
[28] = tested on: P. mirabilis UC 6671; assay: Minimal Inhibitory Concentration; format: cell-based; conditions: Proteus mirabilis, UC6671

N[C@@H]1[C@@H](O)[C@@H](O[C@H]2O[C@H](CO)[C@@H](O)[C@H](O)[C@H]2O)O[C@H](CO)[C@H]1O [3-Trehalosamine]
MIC [1]: > 1000 µg/mL
MIC [2]: 1000 µg/mL (≈ 2930 µM)
MIC [3]: > 1000 µg/mL
MIC [4]: > 1000 µg/mL
MIC [5]: > 1000 µg/mL
MIC [6]: > 1000 µg/mL
MIC [7]: > 1000 µg/mL
stability [8]: stable
solubility ([9]; any pH from about 1 to about 11): soluble
solubility ([9]; water, dilute acid, dilute base): soluble in water, dilute acid and dilute base
MIC [10]: > 1000 µg/mL
MIC [11]: > 1000 µg/mL
antibacterial activity [12]: active against various Gram-positive and Gram-negative bacteria
Zone Size [13]: 30 mm
Zone Size [14]: 36.5 mm
Zone Size [15]: 0 mm
Zone Size [16]: 24 mm
Zone Size [17]: 0 mm
Zone Size [18]: 32 mm
Zone Size [19]: 0 mm
Zone Size [20]: 0 mm
Zone Size [21]: 0 mm
MIC [22]: 62.5 µg/mL (≈ 183 µM)
MIC [23]: > 1000 µg/mL
MIC [24]: > 1000 µg/mL
antibacterial activity [25]: active against B. subtilis
potency vs Bs (biounits; BU = concentration giving a 20 mm zone of inhibition) [26]: 80 BU/mg
antibacterial activity [27]: active against Staphylococcus aureus
MIC [28]: > 1000 µg/mL
